Source: patent US6737383B1, “Herbicidal oxadiazolidines” (priority 1999, dated 2004)

Tests used:
corn = experiment: Test B pre/postemergence corn; assay type: in vivo, Zea mays
Summary of the method: (§1)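 Test chemicals in a non-phytotoxic solvent mixture with surfactant were sprayed preemergence onto planted seeds and postemergence onto plants 2 to 18 cm tall (1- to 4-leaf stage). After twelve to sixteen days in a greenhouse, injury was visually rated against untreated controls from 0 (no effect) to 10 (complete control).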

rice = experiment: Test B flood test rice; assay type: in vivo, Oryza sativa
Summary of the method: (§2)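 Each value is a visual injury score relative to controls, with 10 meaning complete control and 0 no effect. Evaluation took place twelve to sixteen days after the 2-leaf-stage plants were treated and kept in the greenhouse.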

duck salad = experiment: Test B flood test duck salad; assay type: in vivo, Heteranthera limosa
Summary of the method: as §2

wild oat = experiment: Test B pre/postemergence wild oat; assay type: in vivo, Avena fatua
Summary of the method: as §1

surinam grass = experiment: Test B pre/postemergence surinam grass; assay type: in vivo, Brachiaria decumbens
Summary of the method: as §1

sugar beet = experiment: Test B pre/postemergence sugar beet; assay type: in vivo, Beta vulgaris
Summary of the method: as §1

smallflower flatsedge = experiment: Test B flood test smallflower flatsedge; assay type: in vivo, Cyperus difformis
Summary of the method: as §2

bedstraw = experiment: Test B pre/postemergence bedstraw; assay type: in vivo, Galium aparine
Summary of the method: as §1

pigweed = experiment: Test B pre/postemergence pigweed; assay type: in vivo, Amaranthus retroflexus
Summary of the method: as §1

velvetleaf = experiment: Test B pre/postemergence velvetleaf; assay type: in vivo, Abutilon theophrasti
Summary of the method: as §1

blackgrass = experiment: Test B pre/postemergence blackgrass; assay type: in vivo, Alopecurus myosuroides
Summary of the method: as §1

purple nutsedge = experiment: Test B pre/postemergence purple nutsedge; assay type: in vivo, Cyperus rotundus
Summary of the method: as §1

rape = experiment: Test B pre/postemergence rape; assay type: in vivo, Brassica napus
Summary of the method: as §1

wheat = experiment: Test B pre/postemergence wheat; assay type: in vivo, Triticum aestivum
Summary of the method: as §1

crabgrass = experiment: Test B pre/postemergence crabgrass; assay type: in vivo, Digitaria sanguinalis
Summary of the method: as §1

soybean = experiment: Test B pre/postemergence soybean; assay type: in vivo, Glycine max
Summary of the method: as §1

[1] = Postemergence, Rate 62 g/ha, scale 0 to 10, 0 is no effect, 10 is complete control
[2] = Postemergence, Rate 250 g/ha, scale 0 to 10, 0 no effect, 10 complete control
[3] = Preemergence, Rate 62 g/ha, scale 0 to 10, 0 is no effect, 10 is complete control
[4] = Preemergence, Rate 125 g/ha, scale 0 to 10 (0 no effect, 10 complete control)
[5] = Preemergence, Rate 250 g/ha, scale of 0 to 10 where 0 is no effect and 10 is complete control
[6] = Preemergence, Rate 500 g/ha, scale 0 (no effect) to 10 (complete control)
[7] = Rate 125 g/ha, Postemergence, scale 0 to 10, 0 no effect, 10 complete control
[8] = Rate 500 g/ha, Postemergence, scale 0 to 10, 0 no effect, 10 complete control
[9] = Rate 125 g/ha, Postemergence section (flood test species), scale 0 to 10, 0 no effect, 10 complete control
[10] = Rate 500 g/ha, listed under Postemergence (flood test species), scale 0 to 10, 0 no effect, 10 complete control
[11] = flood test, listed under Postemergence, Rate 250 g/ha, scale 0 to 10, 0 no effect, 10 complete control

Cc1ccccc1-n1c(=O)on(C(=O)N(c2ccc(C#N)cc2)C(C)C)c1=O [Compound 51]
Corn plant response rating (corn; [1]): 0 | Corn plant response rating (corn; [2]): 0 | Plant response rating, Corn (corn; [3]): 0 | Plant response rating, Corn (corn; [4]): 0 | Plant response rating, Corn (corn; [5]): 0 | Corn plant response rating (corn; [6]): 0 | Corn plant response rating (corn; [7]): 0 | Corn plant response rating (corn; [8]): 0 | Rice plant response rating (rice; [1]): 0 | Rice plant response rating (rice; [9]): 0 | Rice plant response rating (rice; [10]): 0 | Rice plant response rating (rice; [11]): 0 | Ducksalad plant response rating (duck salad; [1]): 0 | Ducksalad plant response rating (duck salad; [9]): 0 | Ducksalad plant response rating (duck salad; [10]): 0 | Ducksalad plant response rating (duck salad; [11]): 0 | Wild oats plant response rating (wild oat; [1]): 0 | Wild oats plant response rating (wild oat; [2]): 0 | Plant response rating, Wild oats (wild oat; [4]): 0 | Plant response rating, Wild oats (wild oat; [5]): 0 | Wild oats plant response rating (wild oat; [6]): 0 | Wild oats plant response rating (wild oat; [7]): 0 | Wild oats plant response rating (wild oat; [8]): 0 | B. signalgrass plant response rating (surinam grass; [1]): 0 | B. signalgrass plant response rating (surinam grass; [2]): 0 | Plant response rating, B. signalgrass (surinam grass; [3]): 0 | Plant response rating, B. signalgrass (surinam grass; [4]): 0 | Plant response rating, B. signalgrass (surinam grass; [5]): 0 | B. signalgrass plant response rating (surinam grass; [6]): 0 | B. signalgrass plant response rating (surinam grass; [7]): 0 | B. signalgrass plant response rating (surinam grass; Rate 500 g/ha, Postemergence, scale of 0 to 10 where 0 is no effect and 10 is complete control): 0 | Sugarbeets plant response rating (sugar beet; [1]): 0 | Sugarbeets plant response rating (sugar beet; [2]): 0 | Plant response rating, Sugarbeets (sugar beet; [3]): 0 | Plant response rating, Sugarbeets (sugar beet; [4]): 0 | Plant response rating, Sugarbeets (sugar beet; [5]): 0 | Sugarbeets plant response rating (sugar beet; [6]): 0 | Sugarbeets plant response rating (sugar beet; [7]): 0 | Sugarbeets plant response rating (sugar beet; [8]): 0 | S. Flatsedge plant response rating (smallflower flatsedge; [1]): 0 | S. Flatsedge plant response rating (smallflower flatsedge; [9]): 0 | S. Flatsedge plant response rating (smallflower flatsedge; [10]): 0 | S. Flatsedge plant response rating (smallflower flatsedge; [11]): 0 | Bedstraw plant response rating (bedstraw; [1]): 0 | Bedstraw plant response rating (bedstraw; [2]): 0 | Plant response rating, Bedstraw (bedstraw; [3]): 0 | Plant response rating, Bedstraw (bedstraw; [4]): 0 | Plant response rating, Bedstraw (bedstraw; [5]): 0 | Bedstraw plant response rating (bedstraw; [6]): 0 | Bedstraw plant response rating (bedstraw; [7]): 0 | Redroot pigweed plant response rating (pigweed; [1]): 0 | Redroot pigweed plant response rating (pigweed; [2]): 0 | Plant response rating, Redroot pigweed (pigweed; [3]): 0 | Plant response rating, Redroot pigweed (pigweed; [4]): 0 | Plant response rating, Redroot pigweed (pigweed; [5]): 0 | Redroot pigweed plant response rating (pigweed; [6]): 0 | Redroot pigweed plant response rating (pigweed; [7]): 0 | Redroot pigweed plant response rating (pigweed; [8]): 0 | Velvetleaf plant response rating (velvetleaf; [1]): 0 | Velvetleaf plant response rating (velvetleaf; [2]): 0 | Plant response rating, Velvetleaf (velvetleaf; [3]): 0 | Plant response rating, Velvetleaf (velvetleaf; [4]): 0 | Plant response rating, Velvetleaf (velvetleaf; [5]): 0 | Velvetleaf plant response rating (velvetleaf; [6]): 0 | Velvetleaf plant response rating (velvetleaf; [7]): 0 | Velvetleaf plant response rating (velvetleaf; [8]): 0 | Blackgrass plant response rating (blackgrass; [1]): 0 | Blackgrass plant response rating (blackgrass; [2]): 0 | Plant response rating, Blackgrass (blackgrass; [3]): 0 | Plant response rating, Blackgrass (blackgrass; [4]): 0 | Plant response rating, Blackgrass (blackgrass; [5]): 0 | Blackgrass plant response rating (blackgrass; [6]): 0 | Blackgrass plant response rating (blackgrass; [7]): 0 | Blackgrass plant response rating (blackgrass; [8]): 0 | Nutsedge plant response rating (purple nutsedge; [1]): 0 | Nutsedge plant response rating (purple nutsedge; [2]): 0 | Plant response rating, Nutsedge (purple nutsedge; [3]): 0 | Plant response rating, Nutsedge (purple nutsedge; [4]): 0 | Plant response rating, Nutsedge (purple nutsedge; [5]): 0 | Nutsedge plant response rating (purple nutsedge; [6]): 0 | Nutsedge plant response rating (purple nutsedge; [7]): 0 | Nutsedge plant response rating (purple nutsedge; [8]): 0 | Rape plant response rating (rape; [1]): 0 | Rape plant response rating (rape; [2]): 0 | Plant response rating, Rape (rape; [3]): 0 | Plant response rating, Rape (rape; [4]): 0 | Plant response rating, Rape (rape; [5]): 0 | Rape plant response rating (rape; [6]): 0 | Rape plant response rating (rape; [7]): 0 | Rape plant response rating (rape; [8]): 0 | Wheat plant response rating (wheat; [1]): 0 | Wheat plant response rating (wheat; [2]): 0 | Plant response rating, Wheat (wheat; [3]): 0 | Plant response rating, Wheat (wheat; [4]): 0 | Plant response rating, Wheat (wheat; [5]): 0 | Wheat plant response rating (wheat; [6]): 0 | Wheat plant response rating (wheat; [7]): 0 | Wheat plant response rating (wheat; [8]): 0 | Crabgrass plant response rating (crabgrass; [1]): 0 | Crabgrass plant response rating (crabgrass; [2]): 3 | Plant response rating, Crabgrass (crabgrass; [3]): 0 | Plant response rating, Crabgrass (crabgrass; [4]): 0 | Plant response rating, Crabgrass (crabgrass; [5]): 2 | Crabgrass plant response rating (crabgrass; [6]): 2 | Crabgrass plant response rating (crabgrass; [7]): 0 | Crabgrass plant response rating (crabgrass; [8]): 4 | Soybean plant response rating (soybean; [1]): 0 | Soybean plant response rating (soybean; [2]): 0 | Plant response rating, Soybean (soybean; [3]): 0 | Plant response rating, Soybean (soybean; [4]): 0 | Plant response rating, Soybean (soybean; [5]): 0 | Soybean plant response rating (soybean; [6]): 0 | Soybean plant response rating (soybean; [7]): 0 | Soybean plant response rating (soybean; [8]): 1
